Reference: US12304881B2, “Trientine tetrahydrochloride and a method of preparation and a pharmaceutical composition thereof” (Yu-Jet Co., Ltd., priority 2022, dated 2025)
Counter-ions that a name gives are not always drawn.

Assays:
[1] = as disclosed in CN102924289B; cited from earlier work

SMILES | stability, compared between hydrochloride salts [1] | stability (impurity by TLC) in words
NCCNCCNCCN [TETA·2HCl, trientine dihydrochloride] | worse than that of TETA·4HCl | 
NCCNCCNCCN [TETA·4HCl Form N, trientine tetrahydrochloride] |  | good enough
